According to patent US20130184246A1, “METHOD FOR TREATING FATTY LIVER DISEASES, IN PARTICULAR NON-ALCOHOLIC STEATOHEPATITIS” (priority 2010, published 2013):

Assays:
[1] = tested on: hyperlipidemic LDLR knockout mice; experiment: HFC diet supplemented with 27-hydroxycholesterol in hyperlipidemic LDLR knockout mice; type: in vivo; settings: HFC diet supplemented with 27-hydroxycholesterol 0.1% w/w for three weeks vs HFC diet
Description: To determine whether exogenous 27-HC can reduce hepatic inflammation, hyperlipidemic LDLR knockout mice may be fed either chow, HFC diet or HFC diet supplemented with 27-hydroxycholesterol (0.1% w/w) for three weeks. Then, the mice may be sacrificed and detailed characterization of liver and plasma may be performed.

LDLr−/− mice [2] = experiment: Hepatic inflammation: immunohistochemical staining for infiltrated macrophages (MAC1) and neutrophils (NIMP); type: in vivo; settings: vs Group C; for Infiltrated macrophages (MAC1 staining): FIG. 3A
Method: (§1) A total of five different experimental groups, ranging from eigtht to nine mice per group, were used to assess the effects of 27-HC. The 27-HC was dissolved in 2-hydroxypropyl-β-cyclodextrin (Sigma-Aldrich GmbH H5784; St. Louis, Mo.) and injected with a concentration of 40 mg of 27-HC per kilogram of body weight via a subcutaneous injection. Mice in Group A received a chow diet and control injections consisting of 2-hydroxypropyl-β-cyclodextrin dissolved in sodium chloride. Group B mice were also on the chow diet but are given daily subcutaneous injections of 27-HC. Group C were the mice that received the high-fat diet (21% fat; 0.2% cholesterol) and control injections. To differentiate between a therapeutic and a regression effect of the 27-HC, the following two groups were set up: a high-fat diet with daily 27-HC injections (Group D) and a high-fat diet group with two weeks of control injections followed by a week of 27-HC injections (Group E). Mice were housed under standard conditions with food and water available ad libidum.
One day previous to the start of the experiment, the mice were weighed and 100-200 μl of blood were collected in a capillary tube after four hours of fasting via an incision in the tail vein. On day 0, the feeding of specialized diets and injections began according to each group. On the 21st day after the start of the experiment, the animals were weighed and fasted for four hours and had another 100-200 μl of blood drawn and collected in a capillary tube via an incision in the tail vein. Afterwards, the mice were sacrificed via cervical dislocation and immediately had their livers removed via a laparotomy consisting of an incision from the pelvis to the rib cage to gain access into the abdomen. […]
Nikon digital camera model DMX1200 and ACT-1 v2.63 software from Nikon Corporation were used to photograph each section. […] The positive cells for each picture were then counted or scored and noted as cells or lipid droplets per square millimeter, respectively.

LDLr−/− mice [3] = experiment: Liver lipid analysis, NASH treatment with 27-HC; type: in vivo
Method: (§2) The experimental approach consisted of utilizing low-density (LDL) receptor-deficient mice (LDLr−/−) on a C57B16 background. This mouse model is predisposed to elevated serum cholesterol levels when fed a high-fat diet. On a normal chow diet, these mice have a three-fold increase in cholesterol levels when compared to controls.^(39) The lab determined that two weeks is sufficient for mice to reach a steatotic and inflamed liver state.
Experiments were performed in accordance with Dutch law for animal experimentation and approved by the Committee for Animal Welfare of the University of Maastricht. […]
Homogenization of approximately 50 mg of frozen liver tissue was completed at 5000 rpm for 30 seconds with 1.0 mm glass beads along with 1.0 ml SET buffer (sucrose 250 mmol/L, EDTA 2 mmol/L, and Tris 10 mmol/L). […] After adding 200 μl of the reagents (50 parts A, 1 part B) and letting the mixture stand for 30 minutes at 37° C., the absorbance was measured utilizing the enzymatic color test bicinchoninic acid (BCA) method (Pierce, Rockford, Ill.) at a wavelength of 560 nm with a Benchmark 550 Micro-plate reader (170-6750XTU; Bio-Rad, Hercules, Calif.). […]

LDLr−/− mice [4] = experiment: Steatosis scoring by HE and oil red O staining of liver sections; type: in vivo; settings: high-fat diet 27-HC-treated groups
Method: as §1, with “libidum. […]” for “libidum.”
Stained sections were scored in a blind manner by a specialized animal pathologist. […] Sections were scored for the quantity of fat droplets and for the foamy appearance of Kupffer cells. […]
To verify the quantification of fat, 7 μm thick frozen sections were stained with oil red O (ORO; O0725; Sigma-Aldrich), the neutral lipid marker. […]

LDLr−/− mice [5] = experiment: Plasma lipid analysis, NASH treatment with 27-HC; type: in vivo
Method: as §2
Experiments were performed in accordance with Dutch law for animal experimentation and approved by the Committee for Animal Welfare of the University of Maastricht. In this study, the aim was to investigate the ability of 27-hydroxycholesterol (generous gift from Dr. Norman B. Javitt; New York University School of Medicine) to reduce hepatic inflammation and to characterize its potential use as a therapeutic agent for NASH patients. […]
Plasma cholesterol and triglyceride measurements were tested with the enzymatic color tests. […] Absorbance was measured at the 490 nm wavelength with a Benchmark 550 Micro-plate reader. […] Subsequently, 200 μl of reagent A was added, mixed, and after 15 minutes of incubation, read at a wavelength of 545 nm for the initial absorbance. […] The final absorbance was then measured at 545 nm. The concentration of triglycerides was then calculated by subtracting the initial concentrations from the final concentrations. […]

fibroblasts = experiment: Incubation of fibroblasts with 27-HC, endolysosomal cholesterol accumulation; type: cell-based

## C[C@@H](CO)CCC[C@@H](C)[C@H]1CC[C@H]2[C@@H]3CC=C4C[C@@H](O)CC[C@]4(C)[C@H]3CC[C@]12C [27-HC, 27-hydroxycholesterol]
[1]
  Liver and systemic inflammation: reduced liver and systemic inflammation
  Lysosomal cholesterol accumulation: less lysosomal cholesterol accumulation
LDLr−/− mice [2]; Group D: high-fat diet, daily 27-HC for three weeks
  Infiltrated macrophages (MAC1 staining): significantly decreased
LDLr−/− mice [2]; Group D: high-fat diet, daily 27-HC for three weeks, FIG. 3B
  Neutrophils (NIMP staining): decreased neutrophils
LDLr−/− mice [2]; Group E: high-fat diet, two weeks control injections then one week 27-HC
  Infiltrated macrophages (MAC1 staining): significantly decreased
LDLr−/− mice [3]; 27-HC 40 mg/kg s.c. injected groups vs control-injected groups, 3 weeks, FIG. 2C
  Liver cholesterol levels: do not show altered cholesterol levels
LDLr−/− mice [3]; among high-fat diet groups C-E, FIG. 2D
  Liver triglycerides: no significant differences
LDLr−/− mice [4]; FIG. 2E
  Steatosis score, HE staining: do not show any statistical significance or trends
LDLr−/− mice [4]; FIG. 2F
  Steatosis score, oil Red O staining: do not show any statistical significance or trends
LDLr−/− mice [5]; 27-HC 40 mg/kg s.c. injected groups vs control-injected groups, 3 weeks, FIG. 2A
  Plasma cholesterol levels: do not show altered cholesterol levels
LDLr−/− mice [5]; Group D: high-fat diet, daily 27-HC 40 mg/kg s.c. for three weeks, vs Groups C and E, FIG. 2B
  Plasma triglycerides: diminished
fibroblasts
  Endolysosomal cholesterol accumulation: decrease endolysosomal cholesterol accumulation
